Measurements reported in patent publication US20240300932A1, “N-PHENYLIMINE DERIVATIVE AND PREPARATION METHOD AND USE THEREOF” (Guizhou University, priority 2023, published 2024).

Experiments:
Experiment in all cases: Post-emergence herbicidal activity test (stem and leaf spray, pot culture)
Type in all cases: in vivo
Conditions in all cases: 3 weeks after spraying
[1] = tested on: Echinochloa crusgalli
How it was run: (§1)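 Foliar spray, 2–3-leaf stage, 10/5/2.5 g/mu; acetone/Tween 80 + methyl oleate 1.5 L/ha. Greenhouse 3 wk, 20–30 °C. Score: fresh-wt control, grade 5 ≥85% … grade 0 <5%.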

[2] = tested on: Setaria viridis
How it was run: as §1

[3] = tested on: Abutilon theophrasti
How it was run: as §1

[4] = tested on: Portulaca oleracea
How it was run: as §1

[5] = tested on: Amaranthus retroflexus
How it was run: as §1

[6] = tested on: Trifoliumre pensL.
How it was run: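 Rates of 10, 5 and 2.5 g/mu were applied in a single spray-tower treatment to 2–3-leaf plants, thinned to 10 per pot. Formulation: acetone solution, Tween 80, 1.5 L/ha methyl oleate synergist. Weed response assessed after 3 further greenhouse weeks; mean of three experiments.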

| Molecule | Post-emergence herbicidal activity, E. crusgalli (grade) ([1]; dosage 2.5 g/mu) | Post-emergence herbicidal activity, E. crusgalli (grade) ([1]; dosage 5 g/mu) | Post-emergence herbicidal activity, E. crusgalli (grade) ([1]; dosage 10 g/mu) | Post-emergence herbicidal activity, S. viridis (grade) ([2]; dosage 2.5 g/mu) | Post-emergence herbicidal activity, S. viridis (grade) ([2]; dosage 5 g/mu) | Post-emergence herbicidal activity, S. viridis (grade) ([2]; dosage 10 g/mu) | Post-emergence herbicidal activity, A. theophrasti (grade) ([3]; dosage 2.5 g/mu) | Post-emergence herbicidal activity, A. theophrasti (grade) ([3]; dosage 5 g/mu) | Post-emergence herbicidal activity, A. theophrasti (grade) ([3]; dosage 10 g/mu) | Post-emergence herbicidal activity, P. oleracea (grade) ([4]; dosage 2.5 g/mu) | Post-emergence herbicidal activity, P. oleracea (grade) ([4]; dosage 5 g/mu) | Post-emergence herbicidal activity, P. oleracea (grade) ([4]; dosage 10 g/mu) | Post-emergence herbicidal activity, A. retroflexus (grade) ([5]; dosage 2.5 g/mu) | Post-emergence herbicidal activity, A. retroflexus (grade) ([5]; dosage 5 g/mu) | Post-emergence herbicidal activity, A. retroflexus (grade) ([5]; dosage 10 g/mu) | Post-emergence herbicidal activity, Trifoliumre pensL. (grade) ([6]; dosage 2.5 g/mu) | Post-emergence herbicidal activity, Trifoliumre pensL. (grade) ([6]; dosage 5 g/mu) | Post-emergence herbicidal activity, Trifoliumre pensL. (grade) ([6]; dosage 10 g/mu) |
| --- | --- | --- | --- | --- | --- | --- | --- | --- | --- | --- | --- | --- | --- | --- | --- | --- | --- | --- |
| O=C1C2=C(CCCC2)C(=O)N1c1cc(OCc2nc(-c3cccc(C(F)(F)F)c3)no2)c(Cl)cc1F [Compound A17] | 1 (Grade 1: the growth control rate is greater than or equal to 5% and less than 20%) | 2 (Grade 2: the growth control rate is greater than or equal to 20% and less than 40%) | 3 (Grade 3: the growth control rate is greater than or equal to 40% and less than 60%) | 2 (Grade 2: the growth control rate is greater than or equal to 20% and less than 40%) | 3 (Grade 3: the growth control rate is greater than or equal to 40% and less than 60%) | 4 (Grade 4: the growth control rate is greater than or equal to 60% and less than 85%) | 5 (Grade 5: the growth control rate is greater than or equal to 85%) | 5 (Grade 5: the growth control rate is greater than or equal to 85%) | 5 (Grade 5: the growth control rate is greater than or equal to 85%) | 4 (Grade 4: the growth control rate is greater than or equal to 60% and less than 85%) | 5 (Grade 5: the growth control rate is greater than or equal to 85%) | 5 (Grade 5: the growth control rate is greater than or equal to 85%) | 5 (Grade 5: the growth control rate is greater than or equal to 85%) | 5 (Grade 5: the growth control rate is greater than or equal to 85%) | 5 (Grade 5: the growth control rate is greater than or equal to 85%) | 4 (Grade 4: the growth control rate is greater than or equal to 60% and less than 85%) | 5 (Grade 5: the growth control rate is greater than or equal to 85%) | 5 (Grade 5: the growth control rate is greater than or equal to 85%) |
| 2-(4-chloro-2-fluoro-5-(2-oxo-2-(4-methyl)ethoxy)phenyl)-4,5,6,7-tetrahydro-1H-isoindole-1,3(2H)-dione [Compound C2] | 1 (Grade 1: the growth control rate is greater than or equal to 5% and less than 20%) | 2 (Grade 2: the growth control rate is greater than or equal to 20% and less than 40%) | 3 (Grade 3: the growth control rate is greater than or equal to 40% and less than 60%) | 2 (Grade 2: the growth control rate is greater than or equal to 20% and less than 40%) | 3 (Grade 3: the growth control rate is greater than or equal to 40% and less than 60%) | 4 (Grade 4: the growth control rate is greater than or equal to 60% and less than 85%) | 5 (Grade 5: the growth control rate is greater than or equal to 85%) | 5 (Grade 5: the growth control rate is greater than or equal to 85%) | 5 (Grade 5: the growth control rate is greater than or equal to 85%) | 5 (Grade 5: the growth control rate is greater than or equal to 85%) | 5 (Grade 5: the growth control rate is greater than or equal to 85%) | 5 (Grade 5: the growth control rate is greater than or equal to 85%) | 5 (Grade 5: the growth control rate is greater than or equal to 85%) | 5 (Grade 5: the growth control rate is greater than or equal to 85%) | 5 (Grade 5: the growth control rate is greater than or equal to 85%) | 5 (Grade 5: the growth control rate is greater than or equal to 85%) | 5 (Grade 5: the growth control rate is greater than or equal to 85%) | 5 (Grade 5: the growth control rate is greater than or equal to 85%) |
| O=C1C2=C(CCCC2)C(=O)N1c1cc(OCc2nnc(-c3ccccc3F)o2)c(Cl)cc1F [Compound B1] | 1 (Grade 1: the growth control rate is greater than or equal to 5% and less than 20%) | 2 (Grade 2: the growth control rate is greater than or equal to 20% and less than 40%) | 3 (Grade 3: the growth control rate is greater than or equal to 40% and less than 60%) | 2 (Grade 2: the growth control rate is greater than or equal to 20% and less than 40%) | 3 (Grade 3: the growth control rate is greater than or equal to 40% and less than 60%) | 4 (Grade 4: the growth control rate is greater than or equal to 60% and less than 85%) | 5 (Grade 5: the growth control rate is greater than or equal to 85%) | 5 (Grade 5: the growth control rate is greater than or equal to 85%) | 5 (Grade 5: the growth control rate is greater than or equal to 85%) | 5 (Grade 5: the growth control rate is greater than or equal to 85%) | 5 (Grade 5: the growth control rate is greater than or equal to 85%) | 5 (Grade 5: the growth control rate is greater than or equal to 85%) | 5 (Grade 5: the growth control rate is greater than or equal to 85%) | 5 (Grade 5: the growth control rate is greater than or equal to 85%) | 5 (Grade 5: the growth control rate is greater than or equal to 85%) | 5 (Grade 5: the growth control rate is greater than or equal to 85%) | 5 (Grade 5: the growth control rate is greater than or equal to 85%) | 5 (Grade 5: the growth control rate is greater than or equal to 85%) |
